Reference: patent publication US20150259344A1, “IMIDAZOLE DERIVATIVE” (DAINIPPON SUMITOMO PHARMA CO., LTD., priority 2012, published 2015)

Key:
Slc:ddY mice = assay: Novel object recognition test in mice (mORT), evaluation of cognitive function; format: in vivo; conditions: 3 mg/kg (oral), administered prior to the 1st trial, 2nd trial 24 hours after
Experimental: Evaluation of Cognitive Function with Mice in Novel Object Recognition Test (Hereinafter. Referred to as “mORT”)
Slc:ddY mice (25 to 30 g, male, Japan SLC) can be used in the novel object recognition test wherein the interval between the 1st trial (training) and the 2nd trial (test) correlates with the memory loss for the objects used in the 1st trial, and a significant memory-loss is observed when the 2nd trial is performed 24 hours after the 1st trial. According to the test mechanism, the present compounds were administered prior to the 1st trial, and the enhancement effect on memory in the 2nd trial was evaluated.

human α7 nAChR = biological target: T1, human α7 nAChR (Homo sapiens, UniProt P36544); assay: Evaluation of PAM activity with human α7 nACh receptor stably expressing cells (aequorin luminescence, FDSS7000); format: cell-based; conditions: 10 μM test compound; ACh at EC20; ratio of RLU (Max-Min) to control wells; read-out: α7PAM (%) @10 μM
T1 construct: expressed in transfected cells
Procedure, shortened: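 Human α7 nAChR stable cells loaded with 4 μM Viviren (final) for 4 h at room temperature in the dark. Compounds in Hanks/20 mM HEPES/0.2% BSA were added and luminescence recorded on FDSS7000. PAM activity = RLU (Max-Min) ratio of test wells to control wells.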

Slc:Wistar rats = assay: Y-shaped maze test in rats (Y-maze test), scopolamine-induced cognitive impairment; format: in vivo; conditions: 3 mg/kg (oral), treated prior to 0.6 mg/kg scopolamine HBr s.c.
Experimental: Evaluation on Improvement Against Cognitive Impairment with Rats in Y-Shaped Maze Test (Hereinafter, Referred to as “Y-Maze Test”)
In Y-maze test, 0.6 mg/kg scopolamine HBr (cat#S0929, Sigma Aldrich, Japan) can be subcutaneously administered to Slc:Wistar rats (280 to 300 g, male, Japan SLC) to cause cognitive impairment and decrease the percentage of spontaneous alternation behavior. According to the test mechanism, the present compounds were treated prior to the administration of scopolamine, and the improvement effect on cognitive impairment is evaluated.

T1 sequence (P36544 23-502): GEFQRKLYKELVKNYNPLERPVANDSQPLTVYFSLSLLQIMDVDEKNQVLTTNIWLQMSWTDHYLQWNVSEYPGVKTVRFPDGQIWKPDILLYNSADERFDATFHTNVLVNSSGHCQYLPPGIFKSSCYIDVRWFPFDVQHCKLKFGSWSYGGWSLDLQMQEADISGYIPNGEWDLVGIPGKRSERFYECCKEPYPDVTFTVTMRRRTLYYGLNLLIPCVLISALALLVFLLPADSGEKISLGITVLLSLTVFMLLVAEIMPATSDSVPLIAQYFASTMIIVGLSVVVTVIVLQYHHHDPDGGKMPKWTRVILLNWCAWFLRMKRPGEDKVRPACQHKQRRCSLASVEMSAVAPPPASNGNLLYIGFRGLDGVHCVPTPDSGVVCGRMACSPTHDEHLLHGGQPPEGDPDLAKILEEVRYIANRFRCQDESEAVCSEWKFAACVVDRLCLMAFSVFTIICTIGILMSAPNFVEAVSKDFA

| Compound | enhancement effect on memory in the 2nd trial (mORT) (Slc:ddY mice) | activity at 10 µM (human α7 nAChR) [%] | improvement effect on cognitive impairment (Y-maze, spontaneous alternation behavior) (Slc:Wistar rats) |
| --- | --- | --- | --- |
| O=C(NC1CCCCC1)N1CCC(n2cnc(-c3cccc(F)c3)c2)CC1 [Example 1, N-Cyclohexyl-4-[4-(3-fluorophenyl)-1H-imidazol-1-yl]piperidine-1-carboxamide] | significant memory enhancing effect | 836 | significant improvement effect on memory disorder |
| CC(C)(F)C(=O)N[C@H]1CC[C@@H](n2cnc(-c3ccc(F)cc3)c2Cl)CC1 [Example 183, N-{cis-4-[5-chloro-4-(4-fluorophenyl)-1H-imidazol-1-yl]cyclohexyl}-2-fluoro-2-methylpropanamide] | significant memory enhancing effect | 791 | significant improvement effect on memory disorder |
| CC(C)(F)C(=O)N[C@H]1CC[C@@H](n2cnc(-c3ccc(Cl)cc3)c2)CC1 [Example 280, N-{cis-4-[4-(4-chlorophenyl)-1H-imidazol-1-yl]cyclohexyl}-2-fluoro-2-methylpropanamide] | significant memory enhancing effect | 787 |  |
| O=C(NC1CCOCC1)[C@H]1CC[C@@H](n2cnc(-c3ccc(F)c(F)c3)c2Cl)CC1 [Example 370, cis-4-[5-chloro-4-(3,4-difluorophenyl)-1H-imidazol-1-yl]-(tetrahydro-2H-pyran-4-yl)cyclohexanecarboxamide] | significant memory enhancing effect |  |  |
| O=C(C1CCC(F)(F)CC1)N1[C@@H]2CC[C@H]1C[C@H](n1cnc(-c3ccc(F)cc3)c1Cl)C2 [Example 452, {(3-exo)-3-[5-chloro-4-(4-fluorophenyl)-1H-imidazol-1-yl]-8-azabicyclo[3.2.1]oct-8-yl}(4,4-difluorocyclohexyl)methanone] | significant memory enhancing effect |  |  |
